Laboratory results published in patent publication US20120101078A1, “AMIDE DERIVATIVES AS NEUROPEPTIDE Y5 RECEPTOR LIGANDS” (H. Lundbrck A/S, priority 2009, published 2012).

Key:
NPY Y5 receptor [1] = target: T1, NPY Y5 receptor (Homo sapiens, UniProt Q15761); assay: Radioligand (125I-PYY) binding to membrane suspensions, cloned human NPY Y5 receptor; design: expressed in transfected cells; host or cells: LM(tk-) cells (typically); settings: 125I-PYY competition, membranes of transfected LM(tk-) cells; read-out: Ki, binding affinity of selected compounds
T1 sequence (Q15761 1-445): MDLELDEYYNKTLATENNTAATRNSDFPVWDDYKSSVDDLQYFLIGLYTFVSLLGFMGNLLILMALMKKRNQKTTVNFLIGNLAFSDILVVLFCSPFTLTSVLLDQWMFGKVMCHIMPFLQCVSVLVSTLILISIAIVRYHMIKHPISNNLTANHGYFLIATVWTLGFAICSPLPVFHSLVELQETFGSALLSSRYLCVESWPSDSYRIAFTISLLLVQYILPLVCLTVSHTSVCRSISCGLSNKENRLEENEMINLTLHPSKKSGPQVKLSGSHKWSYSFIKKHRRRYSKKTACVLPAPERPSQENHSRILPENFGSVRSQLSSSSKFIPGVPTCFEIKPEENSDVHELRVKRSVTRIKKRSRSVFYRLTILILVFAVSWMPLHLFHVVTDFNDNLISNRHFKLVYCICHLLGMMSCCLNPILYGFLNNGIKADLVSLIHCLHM
Description: (§1) The pharmacological properties of the compounds of the present invention were evaluated at the cloned human NPY Y5 receptor using the protocols disclosed in U.S. Pat. No. 6,124,331, the contents of which are hereby incorporated by reference. The procedures for cell culture, transient transfection and membrane harvest, which are well known in the art, are described therein
Briefly, membrane suspensions from transfected cells (typically expressed in LM(tk-) cells) and ^125I-PYY radioligand (PerkinElmer, Waltham, Mass.) were diluted in binding buffer supplemented with 0.1% bovine serum albumin to yield an optimal membrane protein concentration so that ^125I-PYY bound by membranes in the assay was less than 10% of ^125I-PYY delivered to the sample (100,000 dpm/sample=0.08 nM for competition binding assays). Test compounds were diluted to desired concentrations with supplemented binding buffer in the presence of 30% DMSO. The binding assay was performed in 96-well polypropylene microtiter plates by mixing 125I-PYY test compound (25 μL), and finally, membrane suspensions (200 μL). Final DMSO=3%. Samples were incubated in at room temperature for about 120 min. Incubations were terminated by filtration over Whatman GF/C filters (pre-coated with 1% polyethyleneimine and air-dried before use), followed by washing with ice-cold binding buffer. Filter-trapped membranes were impregnated with MeltiLex solid scintillant (Wallac, Turku, Finland) and counted for ^125I-PYY in a Wallac MicroBeta Trilux. Non-specific binding was defined by 1000 nM porcine NPY. Specific binding was typically 80%; most non-specific binding was associated with the filter. Binding data were analyzed using nonlinear regression and statistical techniques available in the GraphPAD Prism package (San Diego, Calif.).

NPY Y5 receptor [2] = target: T1, NPY Y5 receptor; assay: NPY Y5-dependent inhibition of forskolin-stimulated cAMP accumulation; format: cell-based; design: expressed in transfected cells; settings: stably transfected cells, NPY then forskolin 10 uM, cAMP by HTRF
Description: as §1
Stably transfected cells were seeded into 96-well microtiter plates and cultured until confluent. To reduce the potential for receptor desensitization, the serum component of the media was reduced to 1.5% for 4 to 16 hours before the assay. Cells were washed in Hank's buffered saline, or HBS (150 mM NaCl, 20 mM HEPES, 1 mM CaCl2, 5 mM KCl, 1 mM MgCl2, and 10 mM glucose) supplemented with 0.1% bovine serum albumin plus 100 uM IBMX. […] The assay was then terminated and intracellular cAMP was quantified by with highthroughput time-resolved flourometry (HTRF kit from CisBio, Bedford, Mass.). The effect of the test compound on agonist (NPY) activity were analyzed using nonlinear regression and statistical techniques available in the GraphPAD Prism package (San Diego, Calif.). The compounds of Example 2a and 5b were determined to function as an antagonist at the NPY Y5 receptor.

Wistar rats = Wistar rats exposed to chronic mild stress, chronic dosing 3, 10 mg/kg/day, i.p.; cited from earlier work
Y5 receptor = target: T2, Y5 receptor (Rattus norvegicus, UniProt Q63634); settings: increase elicited by i.c.v. injection of cPP(1-7), NPY(19-23),Ala31,Aib32, Gln34]; cited from earlier work
T2 construct: host or cells: animals in vivo (i.c.v. injection of Y5 agonist)
T2 sequence (Q63634 1-445): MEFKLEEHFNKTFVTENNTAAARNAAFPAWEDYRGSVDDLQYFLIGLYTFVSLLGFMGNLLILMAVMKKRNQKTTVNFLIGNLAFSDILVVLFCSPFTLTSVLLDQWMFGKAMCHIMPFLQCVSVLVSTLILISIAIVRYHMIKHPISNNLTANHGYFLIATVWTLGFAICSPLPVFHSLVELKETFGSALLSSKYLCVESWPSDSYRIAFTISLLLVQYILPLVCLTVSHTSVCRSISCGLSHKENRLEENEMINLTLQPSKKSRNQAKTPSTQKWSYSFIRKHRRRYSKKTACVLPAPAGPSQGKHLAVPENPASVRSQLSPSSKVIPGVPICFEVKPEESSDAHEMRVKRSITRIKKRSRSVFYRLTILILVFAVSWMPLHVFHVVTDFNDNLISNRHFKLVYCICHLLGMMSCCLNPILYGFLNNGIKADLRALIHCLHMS

[3] = tested on: Flinders Sensitive Line rats; settings: chronic dosing 10 mg/kg/day, i.p.; cited from earlier work
[4] = tested on: Flinders Sensitive Line rats; settings: chronic dosing 10 mg/kg/day, i.p.; cited from earlier work; remark: listed apart in the source
Sprague Dawley rats = settings: 3-30 mg/kg, p.o., acute or chronic treatment; cited from earlier work

O=C1CCCN1[C@H]1CC[C@H](C(=O)Nc2ccc(-c3cc(F)cc(F)c3)cn2)CC1 [Example 1a, trans-4-(2-Oxo-pyrrolidin-1-yl)-cyclohexanecarboxylic acid [5-(3,5-difluoro-phenyl)-pyridin-2-yl]-amide]
Ki (NPY Y5 receptor [1]): 720 nM

O=C1OCCN1[C@H]1CC[C@@H](C(=O)Nc2ccc(-c3cc(F)cc(F)c3)cn2)CC1 [Example 2a, cis-4-(2-Oxo-oxazolidin-3-yl)-cyclohexanecarboxylic acid [5-(3,5-difluoro-phenyl)-pyridin-2-yl]-amide]
function at the NPY Y5 receptor (effect on NPY agonist activity) (NPY Y5 receptor [2]): antagonist
Ki (NPY Y5 receptor [1]): 8 nM

O=C1OCCCN1[C@H]1CC[C@@H](C(=O)Nc2ccc(-c3cc(F)cc(F)c3)cn2)CC1 [Example 3a, cis-4-(2-Oxo-perhydro-1,3-oxazin-3-yl)-cyclohexanecarboxylic acid [5-(3,5-difluoro-phenyl)-pyridin-2-yl]-amide]
Ki (NPY Y5 receptor [1]): 6 nM

O=C1NCCCN1[C@H]1CC[C@@H](C(=O)Nc2ccc(-c3cc(F)cc(F)c3)cn2)CC1 [Example 4a, cis-4-(2-Oxo-tetrahydro-pyrimidin-1-yl)-cyclohexanecarboxylic acid [5-(3,5-difluoro-phenyl)-pyridin-2-yl]-amide]
Ki (NPY Y5 receptor [1]): 9 nM

CN1CCCN([C@H]2CC[C@@H](C(=O)Nc3ccc(-c4cc(F)cc(F)c4)cn3)CC2)C1=O [Example 5a, cis-4-(3-Methyl-2-oxotetrahydro-pyrimidin-1-yl)-cyclohexanecarboxylic acid [5-(3,5-difluoro-phenyl)-pyridin-2-yl]-amide]
Ki (NPY Y5 receptor [1]): 12 nM

CN1CCN([C@H]2CC[C@@H](C(=O)Nc3ccc(-c4cc(F)cc(F)c4)cn3)CC2)C1=O [Example 5b, cis-4-(3-Methyl-2-oxo-imidazolidin-1-yl)-cyclohexanecarboxylic acid [5-(3,5-difluoro-phenyl)-pridin-2-yl]-amide]
function at the NPY Y5 receptor (effect on NPY agonist activity) (NPY Y5 receptor [2]): antagonist
Ki (NPY Y5 receptor [1]): 3.8 nM

O=C1COCCN1[C@H]1CC[C@@H](C(=O)Nc2ccc(-c3cc(F)cc(F)c3)cn2)CC1 [Example 6a, cis-4-(3-Oxo-morpholin-4-yl)-cyclohexanecarboxylic acid [5-(3,5-difluoro-phenyl)-pyridin-2-yl]-amide]
Ki (NPY Y5 receptor [1]): 8 nM

CS(=O)(=O)NCC1CCC(Nc2nc3c(s2)CCSc2ccccc2-3)CC1 (stereo not drawn) [Lu AA33810]
effect on stress-induced decrease in sucrose consumption (Wistar rats): antidepressant-like activity
effect on increase in plasma ACTH (Y5 receptor): attenuated increases
effect on increase in plasma cortisol (Y5 receptor): attenuated increases
effect in social interaction test [3]: anxiolytic-like effects
effect in forced swim test [4]: antidepressant-like effects
effect in social interaction test (Sprague Dawley rats): anxiolytic-like effects
